Source: US8394596B1 (priority 2012, dated 2013)
Like-named read-outs stand apart in the source and are kept apart here.

Legend:
Type in all cases: binding
[1] = tested on: rabbit anti-BMAA antibody
[2] = tested on: rabbit anti-BMAA antibody; test: Competitive ELISA for BMAA on anti-rabbit IgG coated plates, estimate of sensitivity (Example 6); conditions: antibody harvested after fourth booster
Procedure: Rabbits were immunized with 0.5-1.0 mg of immunizing conjugate per rabbit per injection. The immunizing conjugate was emulsified with Complete Freund's Adjuvant for primary injections and with Incomplete Freund's Adjuvant for booster injections. Three or four booster injections were performed at monthly intervals to raise the desired titers. The rabbits were bled on 12±3 days following each booster injection. Antisera were monitored for titer and analyte specificity by capturing the relevant antibodies on ELISA plates coated with anti-rabbit IgG. The captured antibodies were measured in a subsequent step by incubating the plates with a BMAA-horseradish peroxidase (BMAA-HRP).
Three rabbits were immunized with an immunogen in which EDC was used to link BMAA to BSA according to Example 1. Three rabbits were immunized with an immunogen in which DSS was used to link BMAA to BSA according to Example 2. The rabbit with the highest antibody titer when tested with sera collected 14 days after the fourth booster was a rabbit that had been immunized with an immunogen in which DSS was used to link BMAA to BSA according to Example 2. Antibodies from that rabbit, harvested 14 days after the fourth booster were used to generate the data obtained from Example 6 below. Antibodies from that rabbit, harvested 14 days after the fourth booster were used to generate the data obtained from Example 8 below.
(§1) The ELISA method: • 1. Add either 100 μL of either a BMAA solution (0, 10, 25, 50, 100, 250, 500, 1000 ng/mL of BMAA) as a calibrator/standard solutions or 100 μL of a test sample into the wells of the test strips (coated with anti-rabbit IgG). Analysis in duplicate or triplicate is recommended. • 2. Add 50 μL of enzyme conjugate solution (BMAA-HRP) to the individual wells successively using a multi-channel pipette or a stepping pipette. • 3. Add 50 μL of antibody solution (rabbit anti-BMAA; for example one made by diluting by a factor of 8000 antiserum from a rabbit immunized according to Example 3 using BMAA-BSA as the immunogen) to the individual wells successively using a multi-channel pipette or a stepping pipette. Cover the wells with parafilm or tape and mix the contents by moving the strip holder in a circular motion on the benchtop for 30 seconds. Be careful not to spill the contents. The foregoing creates a total assay volume of 200 μL. • 4. Incubate the strips for 90 minutes at room temperature. • 5. Remove the covering and decant the contents of the wells into a sink. Wash the strips four times using the diluted washing buffer solution (1×PBS with 0.1% Tween), using at least a volume of 250 μL of washing buffer for each well in each washing step. Remaining buffer in the wells should be removed by patting the inverted plate dry on a stack of paper towels. • 6. Add 150 μL of substrate (color) solution ((TMB), BioFX cat #TMBW-1000 from Surmodics), to the wells. Cover the wells with parafilm or tape and mix the contents by moving the strip holder in a circular motion on the benchtop for 30 seconds. Be careful not to spill the contents. Incubate the strips for 30 minutes at room temperature. Protect the strips from direct sunlight. • 7. Add 100 μL of stop solution (2N HCl) to the wells in the same sequence as for the substrate solution. • 8. Read the absorbance at 450 nm using a microplate ELISA photometer within 15 minutes after the addition of stopping solution using a computer interfaced ELISA reader (Molecular Devices, Sunnyvale, Calif.). BMAA concentration in the unknown samples was estimated by comparison with a concurrently-run standard curve.
The procedure of Example 5 was followed using known amounts of BMAA. (The antibody preparation was that specified in Example 3 as having been used for Example 6). “Concentration (ng/ml)” refers to the concentration of the BMAA in the 100 μL of calibrator/standard solution referred to in step (1) of Example 5. […]

[3] = tested on: rabbit anti-BMAA antibody; test: Competitive ELISA for BMAA, second estimate of sensitivity with later-harvested antibody (Example 8); conditions: antibody harvested after the 6th boost
Procedure: as §1
The procedure of Example 6 was followed except that (1) the BMAA concentrations tested were 5, 10, 25, 100, 250 and 500 ppb (corresponding to 5, 10, 25, 100, 250 and 500 ng/ml) and (2) an antibody preparation harvested later than that used for Example 6 was used. The antibodies harvested for this example were harvested after the 6th boost.
The sensitivity of the assay was estimated to be 2.5 ppb.

[4] = relative to BMAA 50% inhibition at 170 ng/ml, 0.2% compounds tested up to 500 ug/mL, 0.1% up to 1 mg/ml

## N[C@@H](CCC(=O)O)C(=O)O [L-Glutamic acid]
[1]; [4]
  Cross-reactivity: 0.2%

## N[C@@H](CC(=O)O)C(=O)O [L-Aspartic acid]
[1]
  Cross-reactivity: 0.2%

## CNC[C@H](N)C(=O)O [BMAA, β-N-methylamino-L-alanine]
[1]; concentration in the 100 μL standard solution
  concentration of BMAA causing 50% inhibition in the assay: 170 nanograms/ml
[1]; [4]
  Cross-reactivity: 100%
[2]; BMAA 10 ng/ml in 100 μL standard solution
  B/Bo (%): 93%
[2]; BMAA 25 ng/ml in 100 μL standard solution
  B/Bo (%): 85%
[2]; BMAA 50 ng/ml in 100 μL standard solution
  B/Bo (%): 77%
[2]; BMAA 100 ng/ml in 100 μL standard solution
  B/Bo (%): 64%
[2]; BMAA 250 ng/ml in 100 μL standard solution
  B/Bo (%): 44%
[2]; BMAA 500 ng/ml in 100 μL standard solution
  B/Bo (%): 29%
[2]; BMAA 1000 ng/ml in 100 μL standard solution
  B/Bo (%): 18%
[2]; Example 6
  sensitivity of the assay: concentration of BMAA needed to reduce B/Bo by 5 percent: 7.5 ppb
[3]; BMAA 5 ng/ml
  B/Bo (%): 93%
[3]; BMAA 10 ng/ml
  B/Bo (%): 88%
[3]; BMAA 25 ng/ml
  B/Bo (%): 77%
[3]; BMAA 100 ng/ml
  B/Bo (%): 49%
[3]; BMAA 250 ng/ml
  B/Bo (%): 30%
[3]; BMAA 500 ng/ml
  B/Bo (%): 19%
[3]; Example 8
  sensitivity of the assay: concentration of BMAA needed to reduce B/Bo by 5 percent: 2.5 ppb

## Cl.N[C@@H](CS)C(=O)O [L-Cysteine hydrochloride]
[1]; [4]
  Cross-reactivity: 0.2%

## NCCCC(=O)O [γ-Aminobutyric acid]
[1]; [4]
  Cross-reactivity: 0.2%

## Cl.NCCC(N)C(=O)O (racemic) [D,L-2,4-Diaminobutyric acid hydrochloride]
[1]; [4]
  Cross-reactivity: 0.1%
